# In US20240108610A1, “RECTAL ADMINISTRATION OF ROFLUMILAST FOR THE TREATMENT OF CROHN'S DISEASE” (King Abdulaziz University, priority 2022, published 2024):
# How the values were obtained:
# Assay type in all cases: in vivo, rat
# [1] = system: trinitrobenzenesulfonic acid (TNBS)-induced colitis; assay: Disease activity score in TNBS-induced chronic colitis; conditions: oral, once daily for 15 days; sulfasalazine 500 mg/kg, roflumilast 5 mg/kg; vs TNBS group
# Description: Chronic colitis was induced by weekly rectal injections of increasing doses of TNBS over 6 weeks (15, 30, 45, 60, 60, and 60 mg from day 0 to day 35), as previously described (4,12). Briefly, after food deprivation for 24 h, rats were anesthetized with an intraperitoneal injection of 1% isoflurane. TNBS was dissolved in ethanol (50%) and instilled into the colon using a cannula (0.25 mL), and then the rats were held upside down for 3 min to prevent escape of the intracolonic TNBS. Roflumilast was dissolved in dimethyl sulfoxide and diluted in 0.5% carboxymethyl cellulose sodium to a final concentration of 5.0 mg·kg^−1·day^−1 as previously described (13). […] At the end of the treatment period, the rats were evaluated with the colitis activity score. […] At the end of the 15-day treatment period, the rats were sacrificed by cervical dislocation, and the colon was isolated, cleaned of feces, and measured for weight and length. Colonic myeloperoxidase (MPO) activity and glutathione (GSH) and malonaldehyde (MDA) levels were measured. […] The colitis activity index was determined to evaluate the activity of intestinal inflammation as previously described with a slight modification (16). […]
# IL-6 = assay: Serum IL-6 ELISA in TNBS-induced colitis; conditions: means±SE, n = 8
# Description: Chronic colitis was induced by weekly rectal injections of increasing doses of TNBS over 6 weeks (15, 30, 45, 60, 60, and 60 mg from day 0 to day 35), as previously described (4,12). Briefly, after food deprivation for 24 h, rats were anesthetized with an intraperitoneal injection of 1% isoflurane. TNBS was dissolved in ethanol (50%) and instilled into the colon using a cannula (0.25 mL), and then the rats were held upside down for 3 min to prevent escape of the intracolonic TNBS. Roflumilast was dissolved in dimethyl sulfoxide and diluted in 0.5% carboxymethyl cellulose sodium to a final concentration of 5.0 mg·kg^−1·day^−1 as previously described (13). Five groups of rats (n=8) were established: normal control (NC group), TNBS-treated (TNBS group, positive control), and three TNBS-treated groups that received oral sulfasalazine (SS group, 500 mg/kg) (14), oral roflumilast (by gastric gavage, OR group, 5 mg/kg), or rectal roflumilast (RR group, 5 mg/kg). Treatments were administered once daily in a volume of 200 μL for 15 days starting 48 h after the induction of colitis (from day 37) (15), and the control rats received equal amounts of vehicle. At the end of the treatment period, the rats were evaluated with the colitis activity score. To detect the effects of the treatments on systemic inflammatory processes, blood was collected for measurements of the proinflammatory mediators TNF-α, IL-2, and IL-6. At the end of the 15-day treatment period, the rats were sacrificed by cervical dislocation, and the colon was isolated, cleaned of feces, and measured for weight and length. Colonic myeloperoxidase (MPO) activity and glutathione (GSH) and malonaldehyde (MDA) levels were measured. The colon was examined macroscopically for gross changes and microscopically in sections stained with hematoxylin and eosin (H&E), Masson trichrome, and Periodic Acid Schiff (PAS) stains as well as KI-67 and TNF-α immunostaining. Blood was collected through cardiac puncture. The serum was obtained and stored at −80° C. until analysis. […]
# [2] = system: trinitrobenzenesulfonic acid (TNBS)-induced colitis; assay: Histopathological examination of colonic sections (H&E, Masson trichrome, PAS)
# Description: Chronic colitis was induced by weekly rectal injections of increasing doses of TNBS over 6 weeks (15, 30, 45, 60, 60, and 60 mg from day 0 to day 35), as previously described (4,12). Briefly, after food deprivation for 24 h, rats were anesthetized with an intraperitoneal injection of 1% isoflurane. TNBS was dissolved in ethanol (50%) and instilled into the colon using a cannula (0.25 mL), and then the rats were held upside down for 3 min to prevent escape of the intracolonic TNBS. Roflumilast was dissolved in dimethyl sulfoxide and diluted in 0.5% carboxymethyl cellulose sodium to a final concentration of 5.0 mg·kg^−1·day^−1 as previously described (13). Five groups of rats (n=8) were established: normal control (NC group), TNBS-treated (TNBS group, positive control), and three TNBS-treated groups that received oral sulfasalazine (SS group, 500 mg/kg) (14), oral roflumilast (by gastric gavage, OR group, 5 mg/kg), or rectal roflumilast (RR group, 5 mg/kg). Treatments were administered once daily in a volume of 200 μL for 15 days starting 48 h after the induction of colitis (from day 37) (15), and the control rats received equal amounts of vehicle. At the end of the treatment period, the rats were evaluated with the colitis activity score. To detect the effects of the treatments on systemic inflammatory processes, blood was collected for measurements of the proinflammatory mediators TNF-α, IL-2, and IL-6. At the end of the 15-day treatment period, the rats were sacrificed by cervical dislocation, and the colon was isolated, cleaned of feces, and measured for weight and length. Colonic myeloperoxidase (MPO) activity and glutathione (GSH) and malonaldehyde (MDA) levels were measured. The colon was examined macroscopically for gross changes and microscopically in sections stained with hematoxylin and eosin (H&E), Masson trichrome, and Periodic Acid Schiff (PAS) stains as well as KI-67 and TNF-α immunostaining. The colonic segments were fixed in 10% buffered formalin and embedded in paraffin. Afterwards, 3-5-μm-thick sections were made and stained with H&E, Masson's trichrome for collagen, and PAS for […] and mucopolysaccharides. The severity of the lesions was evaluated by a blinded histopathologist as normal, mild, moderate, or marked injury (21).
# [3] = oral, once daily for 15 days, SS 500 mg/kg, OR 5 mg/kg
# [4] = rectal, 5 mg/kg once daily for 15 days
# [5] = oral, once daily for 15 days, sulfasalazine 500 mg/kg, roflumilast 5 mg/kg
structure (smiles),measurement,setting,value
O=C(Nc1c(Cl)cncc1Cl)c1ccc(OC(F)F)c(OCC2CC2)c1 [roflumilast],Disease activity score,[1],decreased the score more than rectal roflumilast
same,serum level of IL-6,IL-6; [3],"21.85 ± 1.00^j, k, l pg/mL"
same,serum level of IL-6,IL-6; [4],"28.93 ± 0.50^j, k pg/mL"
same,PAS-stained goblet cells,[2]; [5],moderate population
same,"collagen deposition, Masson trichrome",[2]; [5],moderate decrease
same,"colonic sections stained with H&E, improvement",[2]; [5],moderate improvement
same,PAS-stained goblet cells,[2]; [4],small population
same,"collagen deposition, Masson trichrome",[2]; [4],mild decrease
same,"colonic sections stained with H&E, improvement",[2]; [4],mild improvement
O=C(O)c1cc(/N=N/c2ccc(S(=O)(=O)Nc3ccccn3)cc2)ccc1O [sulfasalazine],Disease activity score,[1],greatest decrease
same,serum level of IL-6,IL-6; [3],"16.14 ± 1.13^k, m pg/mL"
same,PAS-stained goblet cells,[2]; [5],nearly normal population
same,"collagen deposition, Masson trichrome",[2]; [5],marked decrease
same,"colonic sections stained with H&E, improvement",[2]; [5],marked improvement
